# Experimental data reported in PubChem BioAssay (NCI).
#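 Dose response: 5 concentrations. Exposure: 48 h. Format: 96-well plates. Endpoint: linear interpolation; highest concentration if not reached. TGI: total growth inhibition.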
# Assays:
# Experiment in all cases: NCI tumour cell line growth inhibition, 48 h
# KM12 colon = tested on: KM12 colon
# SW-620 colon = tested on: SW-620 colon
# CAKI-1 renal = tested on: CAKI-1 renal
# NCI-H23 lung = tested on: NCI-H23 lung
# HOP-62 NSCLC = tested on: HOP-62 NSCLC
# NCI-H460 lung = tested on: NCI-H460 lung
# OVCAR-3 ovarian = tested on: OVCAR-3 ovarian
# UACC-62 melanoma = tested on: UACC-62 melanoma
# OVCAR-8 ovarian = tested on: OVCAR-8 ovarian
# SNB-19 CNS = tested on: SNB-19 CNS
Compound,TGI (KM12 colon),TGI (SW-620 colon),TGI (CAKI-1 renal),TGI (NCI-H23 lung),TGI (HOP-62 NSCLC),TGI (NCI-H460 lung),TGI (OVCAR-3 ovarian),TGI (UACC-62 melanoma),TGI (OVCAR-8 ovarian),TGI (SNB-19 CNS)
CC(C)N(CC(=O)O)CC(=O)O,> 100 µM,> 100 µM,> 100 µM,> 100 µM,> 100 µM,> 100 µM,> 100 µM,> 100 µM,> 100 µM,> 100 µM
CO[P@@]1(=O)O[C@@H](c2ccccc2)[C@H](O)[C@@]1(O)c1ccccc1,> 100 µM,> 100 µM,> 100 µM,> 100 µM,,> 100 µM,> 100 µM,> 100 µM,> 100 µM,> 100 µM
Nc1[nH]c(=O)nc2c1cnn2COCCO,> 100 µM,> 100 µM,> 100 µM,53.2 µM,,> 100 µM,,,> 100 µM,> 100 µM
O=P1(Oc2ccc(Cl)cc2Cl)Oc2cc3ccccc3cc2O1,> 100 µM,> 100 µM,> 100 µM,> 100 µM,> 100 µM,> 100 µM,> 60.7 µM,> 100 µM,> 100 µM,> 100 µM
CCOC(=O)c1sc2nc(SC)nc3c2c1NC(=O)CN3c1ccc(F)cc1,> 100 µM,> 100 µM,> 100 µM,> 100 µM,33.7 µM,> 100 µM,> 100 µM,> 100 µM,69.1 µM,> 100 µM
CC1(C=O)CC(CCc2ccccc2)NC1Cc1ccc(O)cc1 (stereo not drawn),37.5 µM,62.3 µM,29.3 µM,43.5 µM,36.4 µM,31.8 µM,33.2 µM,30.3 µM,43.7 µM,28.1 µM
COc1cc2cc(C(=O)N3CC(CCl)c4ccc(NO)cc43)[nH]c2c(OC)c1OC (stereo not drawn),16.3 µM,> 100 µM,3.44 µM,0.166 µM,0.749 µM,> 37.7 µM,0.535 µM,0.372 µM,11.5 µM,11.1 µM
CCOC(=O)C(C(=O)OCC)c1cc(-c2cc3ccccc3o2)oc(=O)c1C#N,> 100 µM,52.6 µM,38.1 µM,36.7 µM,,> 100 µM,,,49.1 µM,> 100 µM
Nc1ccc(Oc2ccc(C34CC5C6CC7(c8ccc(Oc9ccc(N)cc9)cc8)CC5C(C3)C(C7)C6C4)cc2)cc1,> 100 µM,> 100 µM,> 100 µM,> 100 µM,> 100 µM,> 100 µM,> 100 µM,> 100 µM,> 100 µM,> 100 µM
